Data on 1 compound can be found in patent US20120309811A1, “P-GLYCOPROTEIN-SPECIFIC NON-COMPETITIVE PEPTIDE AND PEPTIDOMIMETIC MODULATORS” (UNIVERSITE CLAUDE BERNARD - LYON 1, priority 2009, published 2012).

Assay type in all cases: cell-based
One series addresses T1, MRP1 (Homo sapiens, UniProt P33527).
T1 construct: expressed in transfected cells; host or cells: BHK-21 (ATCC CCL-10) with MRP1 in pcDNA3.1; HEK-293 transfected with ABCC1 in pcDNA3.1 is also described
The series is described as follows: Flow cytometry, inhibition of daunorubicin efflux in cells transfected with MRP1. The settings on record: human, probe daunorubicin, 10 μM compound, read-out: % pump inhibition at 10 μM of compound, MRP1. The source says:
(§1) The HEK-293 human fibroblast line (ATCC cell collection CRL-1573) is transfected with either BCRP (Robey R. W. et al. 2003, Br. J. Cancer 89(10) 1971-1978, [32]) or ABCC1, cloned into the pcDNA3.1 expression vector (Invitrogen), or with the empty pcDNA3.1 vector. The NIH3T3 cell line (ATCC CRL-1658) was stably transfected with pHaMDR1/A (Cardarelli et al. 1995 Cancer Res 55 1086-1091, [33]), which is a retroviral vector that expresses the wild-type MDR1 protein. The BHK-21 cell line (ATCC CCL-10) was transfected with MRP1 cloned into the pcDNA3.1 expression vector, or the empty pcDNA3.1 vector. The cells are maintained in culture in DMEM glutamax II (Invitrogen) supplemented with 10% of fetal bovine serum and 1% of penicillin/streptomycin. The data are processed with Sigmaplot V11 (http://www.systat.com/), and the equation for mathematical adjustment of the experimental data for calculating the IC50 values: f=a×(1−exp(−b×x)) (a=slope, b=intercept on the y-axis).
(§2) The cells expressing P-gp, BCRP and MRP, and their corresponding controls, are placed in the presence of 10 and 2 μM of mitoxantrone for the first two transporters and of 1 μM of daunorubicin for the 3rd. Substrate accumulation is carried out for 30 minutes at 37° C. in the presence or absence of varied concentrations of the molecules tested, at a final DMSO (dimethyl sulfoxide) concentration of 0.5%. After washing with PBS (phosphate buffered saline), the cells are incubated in medium containing the same concentrations of molecules tested as previously, for 1 h at 37° C. The intracellular fluorescence of mitoxantrone and daunorubicin anticancer agent is measured with the FACscan flow cytometer (Becton Dickinson, Mountain, View, Calif.). The drugs are excited at 488 nm. The emission of mitoxantrone is measured at 650 nm, whereas the emission of daunorubicin is measured at 530 nm. The effectiveness of the molecules tested is expressed by equation 1: % effectiveness=100×(FA−FBG)/(FC−FBG), where FA corresponds to the intracellular level of substrate measured in the cells overexpressing ABCG2 (corresponding to the lowest level of fluorescence in the absence of inhibitor), FC corresponds to the fluorescence in the control cells transfected with the empty vector (and therefore to the maximum accumulation of substrate in the cells) and FBG corresponds to the fluorescence measured in the absence of substrate and in the presence of inhibitor.
The inhibitory effect of the compounds is quantified by measuring, by flow cytometry, the efflux of an anticancer drug transported by the pump under consideration, i.e. mitoxantrone for P-gp and BCRP and daunorubicin for MRP1. It is compared with that of the reference product, reversin 121. […]
Background: A flow cytometer gives signals particle by particle.

Series [1] deals with T2, P-gp (Homo sapiens, UniProt P08183).
T2 construct: expressed in transfected cells; host or cells: NIH3T3 (ATCC CRL-1658), stably transfected with retroviral vector pHaMDR1/A
The series is described as follows: Flow cytometry, inhibition of mitoxantrone efflux in NIH3T3 cells expressing P-gp.
Source text: as §1, §2
(§3) The inhibitory effect of the compounds is quantified by measuring, by flow cytometry, the efflux of an anticancer drug transported by the pump under consideration, i.e. mitoxantrone for P-gp and BCRP and daunorubicin for MRP1. It is compared with that of the reference product, reversin 121. The products are tested at 10 μM, then at 2 μM for those which block at least 80% of the efflux of mitoxantrone, and for some, a more complete concentration range is tested so as to establish the concentration value producing 50% inhibition, IC50, as indicated in FIG. 3.

The next series deals with T3, BCRP (Homo sapiens, UniProt Q9UNQ0).
T3 construct: expressed in transfected cells; host or cells: HEK-293 (ATCC CRL-1573), pcDNA3.1 expression vector (Invitrogen)
T3 sequence (Q9UNQ0 1-655): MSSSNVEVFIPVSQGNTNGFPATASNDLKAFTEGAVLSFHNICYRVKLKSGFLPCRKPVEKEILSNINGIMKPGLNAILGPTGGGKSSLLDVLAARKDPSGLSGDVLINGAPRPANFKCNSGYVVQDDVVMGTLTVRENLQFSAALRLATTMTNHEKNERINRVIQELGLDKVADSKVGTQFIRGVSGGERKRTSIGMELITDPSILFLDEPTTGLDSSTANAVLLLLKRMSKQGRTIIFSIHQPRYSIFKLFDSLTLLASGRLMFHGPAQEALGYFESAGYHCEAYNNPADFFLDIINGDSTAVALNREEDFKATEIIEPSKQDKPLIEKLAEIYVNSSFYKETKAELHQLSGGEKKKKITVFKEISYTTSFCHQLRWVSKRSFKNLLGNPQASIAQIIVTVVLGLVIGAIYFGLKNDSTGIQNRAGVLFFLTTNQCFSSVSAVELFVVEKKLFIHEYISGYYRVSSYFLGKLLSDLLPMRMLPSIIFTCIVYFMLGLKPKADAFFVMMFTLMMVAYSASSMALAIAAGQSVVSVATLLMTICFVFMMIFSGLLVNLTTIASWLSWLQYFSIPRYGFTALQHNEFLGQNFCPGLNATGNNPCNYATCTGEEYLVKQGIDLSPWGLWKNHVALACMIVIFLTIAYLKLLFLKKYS
The series is described as follows: Flow cytometry, inhibition of mitoxantrone efflux in HEK-293 cells transfected with BCRP. The following applies: 10 μM compound.
Source text: as §1, §2, §3

Series [2] has as its target T2, P-gp. The series is described as follows: Kinetics of inhibition of daunorubicin efflux produced by P-gp (mode of inhibition). The settings on record: Lineweaver & Burke double reciprocal representation. The protocol:
FIGS. 6A and 6B show the kinetics of inhibition of daunorubicin efflux produced by P-gp, with compound No. 6. The intracellular daunorubicin fluorescence is measured in the presence of increasing concentrations of No. 6, respectively 0 (circles), 0.12 μM (triangles), 0.22 μM (squares), 0.44 μM (diamonds) and 10 μM (upward-pointing triangles), corresponding to 0, 25, 50, 75 and 100% efflux inhibition effectiveness. FIG. 6A: direct representation, FIG. 6B, Lineweaver & Burke double reciprocal representation.
The intracellular concentration of fluorescent daunorubicin is measured at increasing daunorubicin concentrations, in the presence or absence of fixed concentrations of 0, 0.12 μM, 0.22 μm, 0.44 μM and 10 μM of compound No. 6 corresponding to 0%, 25%, 50%, 75% and 100% efflux inhibition effectiveness according to FIG. 3.

The subject of series [3] is NIH3T3 cells expressing or not expressing P-gp. The series is described as follows: Cytotoxicity test (MTT), cell survival after 72 h. The protocol: The cells are seeded in a proportion of 10 000 per well in 96-well plates and incubated for 24 hours at 37° C. under 5% CO2. Varied concentrations of compounds Nos 2, 3, 4, 5 and 6, up to 20 times the IC50, are then added. The cytotoxicity is evaluated colorinnetrically with 3-(4,5-dimethylthiazol-2-yl)-2,5-diphenyltetrazolium bromide (MTT).
Increasing concentrations of compound No. 4 or No. 6 are applied to NIH3T3 cells expressing or not expressing P-gp. The cell survival is measured after 72 h and is expressed as a percentage. At 10 times the half-maximum-effect concentration, these two compounds are not toxic. Above this, the toxicity of compound No. 4 remains negligible, while that of compound No. 6 remains limited.

Bounds are passed on as bounds.

T2 sequence (P08183 whole entry): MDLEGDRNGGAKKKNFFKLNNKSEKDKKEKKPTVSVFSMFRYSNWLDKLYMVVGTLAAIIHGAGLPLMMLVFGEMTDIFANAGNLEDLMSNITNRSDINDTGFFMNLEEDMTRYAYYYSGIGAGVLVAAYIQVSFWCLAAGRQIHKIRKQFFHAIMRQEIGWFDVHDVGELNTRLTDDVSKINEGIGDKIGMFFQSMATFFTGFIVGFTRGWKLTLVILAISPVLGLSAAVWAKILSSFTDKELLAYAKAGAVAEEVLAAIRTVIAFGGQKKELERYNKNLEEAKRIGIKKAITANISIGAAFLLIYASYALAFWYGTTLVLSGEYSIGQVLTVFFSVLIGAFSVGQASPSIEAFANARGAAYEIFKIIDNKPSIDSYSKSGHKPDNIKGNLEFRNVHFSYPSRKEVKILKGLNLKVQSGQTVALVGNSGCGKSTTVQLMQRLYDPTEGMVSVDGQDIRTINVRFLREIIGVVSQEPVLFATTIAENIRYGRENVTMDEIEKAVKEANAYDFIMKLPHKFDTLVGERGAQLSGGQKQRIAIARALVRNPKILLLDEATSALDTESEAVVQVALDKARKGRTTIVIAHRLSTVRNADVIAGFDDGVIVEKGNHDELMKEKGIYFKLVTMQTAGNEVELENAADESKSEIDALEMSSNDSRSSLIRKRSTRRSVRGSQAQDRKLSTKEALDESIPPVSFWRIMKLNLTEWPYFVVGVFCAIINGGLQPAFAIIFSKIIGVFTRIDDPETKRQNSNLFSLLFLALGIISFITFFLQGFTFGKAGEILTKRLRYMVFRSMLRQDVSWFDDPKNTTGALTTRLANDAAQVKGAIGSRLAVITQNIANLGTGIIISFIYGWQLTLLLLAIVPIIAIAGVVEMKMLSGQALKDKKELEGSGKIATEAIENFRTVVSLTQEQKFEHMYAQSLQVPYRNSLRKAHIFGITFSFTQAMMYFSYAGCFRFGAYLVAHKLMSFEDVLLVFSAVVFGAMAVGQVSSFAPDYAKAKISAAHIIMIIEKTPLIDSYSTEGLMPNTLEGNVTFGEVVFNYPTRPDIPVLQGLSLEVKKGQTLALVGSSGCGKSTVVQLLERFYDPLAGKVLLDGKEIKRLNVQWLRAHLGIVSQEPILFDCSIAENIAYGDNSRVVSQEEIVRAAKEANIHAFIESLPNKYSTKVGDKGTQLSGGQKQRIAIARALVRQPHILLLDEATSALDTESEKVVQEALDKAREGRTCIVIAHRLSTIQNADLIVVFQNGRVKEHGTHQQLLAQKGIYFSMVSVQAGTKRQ
T1 sequence (P33527 whole entry): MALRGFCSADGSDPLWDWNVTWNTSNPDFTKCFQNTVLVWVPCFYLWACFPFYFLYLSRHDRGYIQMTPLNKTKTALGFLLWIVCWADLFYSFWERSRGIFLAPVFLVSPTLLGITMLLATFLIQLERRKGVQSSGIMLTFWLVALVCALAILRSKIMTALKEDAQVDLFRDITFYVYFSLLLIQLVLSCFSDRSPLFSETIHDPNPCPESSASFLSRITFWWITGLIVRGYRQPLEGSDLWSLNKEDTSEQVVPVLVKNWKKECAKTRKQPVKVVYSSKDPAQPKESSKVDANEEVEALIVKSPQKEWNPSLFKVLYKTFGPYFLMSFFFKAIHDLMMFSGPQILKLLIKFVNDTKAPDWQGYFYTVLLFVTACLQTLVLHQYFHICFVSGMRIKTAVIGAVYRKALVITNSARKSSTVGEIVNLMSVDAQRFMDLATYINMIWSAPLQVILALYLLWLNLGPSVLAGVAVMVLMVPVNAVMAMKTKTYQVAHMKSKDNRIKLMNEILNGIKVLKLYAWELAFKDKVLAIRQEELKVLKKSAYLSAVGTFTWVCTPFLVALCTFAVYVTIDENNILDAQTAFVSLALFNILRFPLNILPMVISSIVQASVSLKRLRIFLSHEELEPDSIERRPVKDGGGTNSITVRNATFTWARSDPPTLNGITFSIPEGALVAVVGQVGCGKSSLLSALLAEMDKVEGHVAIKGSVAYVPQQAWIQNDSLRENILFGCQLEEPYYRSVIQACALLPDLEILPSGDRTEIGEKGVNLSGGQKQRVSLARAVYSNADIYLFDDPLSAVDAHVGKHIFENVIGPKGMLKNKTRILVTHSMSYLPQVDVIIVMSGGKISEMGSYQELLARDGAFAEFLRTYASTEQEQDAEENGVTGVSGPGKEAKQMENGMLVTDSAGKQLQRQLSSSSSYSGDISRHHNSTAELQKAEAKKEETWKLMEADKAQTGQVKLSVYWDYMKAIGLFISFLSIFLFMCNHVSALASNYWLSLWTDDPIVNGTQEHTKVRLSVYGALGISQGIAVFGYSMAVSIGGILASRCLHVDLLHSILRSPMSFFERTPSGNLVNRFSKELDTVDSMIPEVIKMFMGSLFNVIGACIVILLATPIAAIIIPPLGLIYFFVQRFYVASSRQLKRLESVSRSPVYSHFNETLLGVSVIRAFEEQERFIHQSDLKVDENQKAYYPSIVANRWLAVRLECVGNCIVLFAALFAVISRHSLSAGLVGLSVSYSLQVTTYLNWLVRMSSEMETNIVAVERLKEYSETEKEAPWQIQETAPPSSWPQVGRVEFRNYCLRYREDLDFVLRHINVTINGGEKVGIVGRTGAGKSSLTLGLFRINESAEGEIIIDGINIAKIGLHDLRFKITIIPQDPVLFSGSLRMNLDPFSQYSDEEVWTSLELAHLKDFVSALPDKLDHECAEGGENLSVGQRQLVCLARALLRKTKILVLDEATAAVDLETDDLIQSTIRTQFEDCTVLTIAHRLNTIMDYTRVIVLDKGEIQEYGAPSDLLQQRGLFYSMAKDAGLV

Broadly, the inhibition is the share of the control response that was lost under treatment. Broadly, the IC50 is the point on the concentration scale where inhibition reaches its midpoint. Read a high IC50 as weaker potency in that assay. As for `CC(C)(C)OC(=O)[C@H](CCCCNC(=O)OCc1ccccc1)NC[C@@H]1C[C@@H](OCc2ccccc2)CN1C(=O)OC(C)(C)C` [No. 6, N^α-Boc-trans-L-4-Hyp(Bn)-ψ(CH2-NH)-L-Lys(Z)-OtBu], the inhibition at 1 h, 10 µM on MRP1 was under 10%; on P-gp [1] (human, probe mitoxantrone, 10 μM compound, according to FIG. 3, read-out: efflux inhibition effectiveness), 100%. In addition, the “IC50 for P-gp compared with that of reversin 121” value against P-gp [1] is listed as “seven times better”. For the same compound, the “% pump inhibition at 10 μM of compound, P-gp” value on P-gp [1] (10 μM compound, mitoxantrone efflux) is on record as 106.9 ± 23.0%. The inhibition at 1 h, 0.12 µM at P-gp [1] (human, probe mitoxantrone, 0.12 μM compound, according to FIG. 3, read-out: efflux inhibition effectiveness) amounted to 25%. In addition, the inhibition at 1 h, 0.44 µM on P-gp [1] (human, probe mitoxantrone, 0.44 μM compound, according to FIG. 3, read-out: efflux inhibition effectiveness) was determined as 75%. Further, on P-gp [1] (human, probe mitoxantrone, 0.22 μm compound, according to FIG. 3, read-out: efflux inhibition effectiveness), the inhibition at 1 h, 0.22 μM was 50%. In addition, at P-gp [1] (mitoxantrone efflux, mathematical adjustment of experimental points), the IC50 turned out to be 220 ± 30 nM. Also, the “% pump inhibition at 10 μM of compound, BCRP” value at BCRP turned out to be 42.3 ± 0.8%. Moreover, the mechanism of inhibition entry on P-gp [2] was “noncompetitive”. For the same compound, the cytotoxicity entry in series [3] (above 10 times the half-maximum-effect concentration) is listed as “limited”; in series [3] (at 10 times the half-maximum-effect concentration), “not toxic”.
